In patent publication US4007267A, “Antibiotic B-98891” (priority 1974, dated 1977):
Converted amounts (≈) assume the structure as drawn. “Also recorded” adds a separate entry of the source. Read-outs that look alike come from different tables or passages of the source.

Legend:
[1] = system: Mycobacterium smegmatis ATCC-607; experiment: Antimicrobial spectrum (in vitro), agar dilution and diffusion methods; format: cell-based; settings: medium C, 37 °C, time 40
Protocol: (§1) The antimicrobial spectrum of the antibiotic B-98891 as measured by the agar dilution and diffusion methods is shown in Table 3. The "diameter of inhibition zone" in the table represents the diameter of the inhibition zone formed around a paper disc(7 mm. in diameter) immersed in a 5000 μg/ml. solution of the present antibiotic.
(§2) C 3.0 % glycerin, 0.5 % Ehrlich's meat extract, 0.5 % polypeptone, 0.5 % NaCl, 1.5 % agar (pH 7.0)

[2] = system: Mycobacterium phlei IFO-3158; experiment: as above; format: cell-based; settings: medium C, 37 °C, time 40
Protocol: as §1, §2

[3] = system: Trichophyton mentagrophytes IFO-5809; experiment: as above; format: cell-based; settings: medium D, 28 °C, time 88
Protocol: as §1

[4] = system: Cochliobolus miyabeanus IFO-5277; experiment: as above; format: cell-based; settings: medium A, 28 °C, time 40
[5] = system: Penicillium expansum IFO-7813; experiment: as above; format: cell-based; settings: medium A, 28 °C, time 40
[6] = system: Sphaerotheca fuliginea (Schlechtendahl) Pollacci; experiment: Control test of powdery mildew of oriental melon; format: in vivo
[7] = system: powdery mildew of oak tree; experiment: Control test of powdery mildew of oak tree
Protocol: (§6) The control chemical was also similarly diluted with water.
This test was conducted with shoots of naturally grown oak (Quercus glauca Thunb.) trees about 10 years old. The fungicidal solutions prepared in the same manner as Test Example 1 were applied in mists.
The old mature leaves had already been severely diseased and, therefore, spontaneous infection of young leaves on the shoots was expected.
The number of treated leaves was 50 per group. The percent area of the lesion on treated leaves was investigated at 7 days after the treatment.

[8] = system: Rhodotorula rubra IFO-0870; experiment: Antimicrobial spectrum (in vitro), agar dilution and diffusion methods; format: cell-based; settings: medium A, 28 °C, time 40
[9] = system: Staphylococcus aureus IFO-3061; experiment: as above; format: cell-based; settings: medium B, 37 °C, time 20
Protocol: as §1
(§3) B 0.5 % ehrlich's meat extract, 0.5 % polypeptone, 0.5 % NaCl, 1.5 % agar (pH 7)

[10] = system: Pseudomonas aeruginosa IFO-3080; experiment: as above; format: cell-based; settings: medium B, 37 °C, time 20
Protocol: as §1, §3

[11] = system: Escherichia coli IFO-3044; experiment: as above; format: cell-based; settings: medium B, 37 °C, time 20
Protocol: as §1, §3

[12] = system: Proteus vulgaris IFO-3045; experiment: as above; format: cell-based; settings: medium B, 37 °C, time 20
Protocol: as §1, §3

[13] = system: Bacillus subtilis IFO-3513; experiment: as above; format: cell-based; settings: medium B, 37 °C, time 20
Protocol: as §1, §3

[14] = system: certain gram-positive bacteria, gram-negative bacteria, phytopathogenic fungi and certain yeasts; experiment: Antimicrobial spectrum, summary; format: cell-based; settings: in vitro
Protocol: as §1

powdery mildew of barley = experiment: Control test of powdery mildew of barley (pots); format: in vivo, Erysiphe graminis
Botrytis cinerea TKF-12 = experiment: Antimicrobial spectrum (in vitro), agar dilution and diffusion methods; format: cell-based; settings: medium A, 20 °C, time 88
Protocol: as §1
(§4) A 3.0 % sucrose, 0.2 % L-asparagine, 0.3 % NH4 NO3, 0.1 % KH2 PO4, 0.1 % MgSO4.7H2 O, 0.001 % versenol (manufactured by Dow Chemical Co.; an iron chelate compound; content of iron-sodium ethanol ethylene diamine triacetate is 57.04 %), 1.5 % agar (pH 7) Before use, the following vitamins are added to the medium to the indicated final concentrations. 1 μg/ml. thiamine, 1 μg/ml. riboflavin, 1 μg/ml. calcium pantothenate, 1 μg/ml. niacin, 0.005 μg/ml. biotin, 0.5 μg/ml. folic acid, 2 μg/ml. pyridoxine hydrochloride, 0.5 μg/ml. p-aminobenzoic acid, 0.0002 μg/ml. cyanocobalamin

[15] = system: Guignardia laricina IFO-7888; experiment: as above; format: cell-based; settings: medium A, 28 °C, time 88
Protocol: as §1, §4

[16] = system: Candida albicans IFO-0583; experiment: as above; format: cell-based; settings: medium A, 28 °C, time 40
[17] = system: powdery mildew of tobacco plant; experiment: Control test of powdery mildew of tobacco plant
Protocol: as §6
Tobacco plants (Nicotiana tabacum L. f. MC) grown in pots, with the fourth mature leaf sufficiently unfolded, were prepared in a green-house, two pots per group, for this test. To encourage the onset of the disease, the pots of diseased plants were placed next to the test pots for spontaneous infection. The fungicidal solutions were prepared in the same manner as Test Example 1 and sprayed onto the test plants in two divided doses, each in sufficient volume, at intervals of 10 days. The percent area of the lesion was investigated 9 days and 15 days, respectively, after the last application.

powdery mildew of rose [18] = experiment: Control test of the powdery mildew of rose (Super Star); format: in vivo
Protocol: (§5) For this test, rose (Rosa spp.) plants were grown in pots at a green-house.As test plants (forma species: Super Star and Arlene Francis) were used in groups of 3 pots per treatment. […] The number of diseased leaflets on three branches per pot was investigated 7 days after the third application and the percentage of diseased leaflets relative to the total number of leaflets investigated was calculated.

[19] = system: Penicillium chrysogenum IFO-4626; experiment: Antimicrobial spectrum (in vitro), agar dilution and diffusion methods; format: cell-based; settings: medium A, 28 °C, time 40
Japanese killifish = experiment: Fish toxicity test; format: in vivo; settings: 20 ppm, 7 days observation
[20] = system: Sphaerotheca fuliginea Pollacci; experiment: Control effect against drug-resistant powdery mildew on cucumber; settings: 40 ppm, 7 days
Description: as §6
The leaves of a cucumber plant (Cucumis sativus L. f. Suyo) infected with powdery mildew were flipped over a 1-month cucumber plant in a pot so that the latter was inoculated with Sphaerotheca fuliginea Pollacci. After 1 day, the fungicidal solutions prepared in the same manner as Test Example 1 were sprayed in sufficient volume over the plant. After about 14 days, the fungal growth formed were used to further inoculate intact cucumber plants. One day after the inoculation, fungicidal solution was sprayed and, after 7 days, the percent area of the lesion was determined.

[21] = system: powdery mildew of apple plant; experiment: Control test of powdery mildew of apple plant; format: in vivo; settings: 12 days
Protocol: as §6
The seedlings of the apple (Malus pumila Miller var. domestica Schneider f. Rall's Janet) in their 5- to 8-leaf stage were employed. The pathogenic fungi on diseased leaves of an apple plant were dusted over the tops of the seedlings which, then, were kept in a green-house. […] After the application, the seedlings were further grown in a green-house. After 12 days, the percent area of the lesion was investigated. The test was conducted in hexaplicate for each group.

[22] = system: Pyricularia oryzae IFO-5279; format: cell-based; settings: medium A, 28 °C, time 40
[23] = system: Saccharomyces cerevisiae IFO-0209; experiment: Antimicrobial spectrum (in vitro), agar dilution and diffusion methods; format: cell-based; settings: medium A, 28 °C, time 40
powdery mildew of pepper = experiment: Control test of powdery mildew of pepper
Protocol: as §6
The reverse sides of unfolded leaves of pot-grown pepper plants (9 to 10-leaf stage, Capsicum annuum L. f. California Wonder) were inoculated, by dusting, with the pathogenic fungi from infected leaves. Two days later, the leaves were sprayed with adequate volume of test solutions as in Test Example 1. Then, the plants were grown and cared in a green-house and, after timed intervals, the percent area of fungal growth was determined. This test was performed in duplicate for each group.

[24] = system: Phytophthora infestans (Montagne) de Bary; format: in vivo
powdery mildew of rose [25] = experiment: Control test of the powdery mildew of rose (Arlene Francis); format: in vivo
Protocol: as §5

Erysiphe graminis = experiment: Activity against powdery mildew of barley (seedlings in test tubes); settings: for Percent area of lesion: 18 °C, 7 days
Protocol: The unfolded leaves were inoculated with conidia of Erysiphe graminis using a small brush and each stock was kept in a test tube at 18° C for 7 days. The percent area of the resultant lesion was calculated to determine the effect of the test drug.

[26] = system: Sclerotinia sclerotiorum IFO-9395; experiment: Antimicrobial spectrum (in vitro), agar dilution and diffusion methods; format: cell-based; settings: medium A, 28 °C, time 40
[27] = system: Aspergillus niger IFO-4066; experiment: as above; format: cell-based; settings: medium A, 28 °C, time 40

NC(N)=NCC(O)CC(O)(C(=O)O)[C@H]1O[C@@H](n2cc(CO)c(N)nc2=O)C=C[C@@H]1NC(=O)[C@@H](N)CO (some centres unmarked) [B-98891]
Minimal inhibitory concentration [1]: 250 µg/mL (≈ 486 µM)
Diameter of inhibition zone ([1]; paper disc 7 mm, 5000 μg/ml): 24 mm
Minimal inhibitory concentration [2]: 50 µg/mL (≈ 97.2 µM)
Diameter of inhibition zone ([2]; paper disc 7 mm, 5000 μg/ml): 27 mm
Minimal inhibitory concentration [3]: 500 µg/mL (≈ 972 µM)
Minimal inhibitory concentration [4]: > 500 µg/mL
Diameter of inhibition zone ([4]; paper disc 7 mm, 5000 μg/ml): 15 mm
Minimal inhibitory concentration [5]: 100 µg/mL (≈ 194 µM)
Diameter of inhibition zone ([5]; paper disc 7 mm, 5000 μg/ml): 25 mm
Percent area of the lesion ([6]; 40 ppm, 7 days): 0%
Percent area of the lesion ([6]; 40 ppm, 14 days): 19.0%
Percent area of the lesion ([6]; 40 ppm, 21 days): 40.0%
Percent area of the lesion ([6]; 80 ppm, 7 days): 1.5%
Percent area of the lesion ([6]; 80 ppm, 14 days): 7.0%
Percent area of the lesion ([6]; 80 ppm, 21 days): 24.0%
Percent area of the lesion ([6]; 160 ppm, 7 days): 0.6%
Percent area of the lesion ([6]; 160 ppm, 14 days): 0.6%
Percent area of the lesion ([6]; 160 ppm, 21 days): 5.0%
Percent area of lesion ([7]; 40 ppm, 7 days): 8.3%
Percent area of lesion ([7]; 40 ppm, 14 days): 26.4%
Percent area of lesion ([7]; 80 ppm, 7 days): 1.1%
Percent area of lesion ([7]; 80 ppm, 14 days): 1.5%
Percent area of lesion ([7]; 160 ppm, 7 days): 0.6%
Percent area of lesion ([7]; 160 ppm, 14 days): 0.5%
Minimal inhibitory concentration [8]: 50 µg/mL (≈ 97.2 µM)
Diameter of inhibition zone ([8]; paper disc 7 mm, 5000 μg/ml): 80 mm
Minimal inhibitory concentration [9]: > 500 µg/mL
Diameter of inhibition zone ([9]; paper disc 7 mm, 5000 μg/ml): 10 mm
Minimal inhibitory concentration [10]: > 500 µg/mL
Minimal inhibitory concentration [11]: 500 µg/mL (≈ 972 µM)
Diameter of inhibition zone ([11]; paper disc 7 mm, 5000 μg/ml): 14 mm
Minimal inhibitory concentration [12]: > 500 µg/mL
Diameter of inhibition zone ([12]; paper disc 7 mm, 5000 μg/ml): 11 mm
Minimal inhibitory concentration [13]: > 500 µg/mL
Diameter of inhibition zone ([13]; paper disc 7 mm, 5000 μg/ml): 14 mm
antimicrobial activity [14]: weakly active
Percent area of lesions (powdery mildew of barley; 15.6 ppm, 6th leaf, A: 10 days after first application): 0.4%
Percent area of lesions (powdery mildew of barley; 15.6 ppm, 6th leaf, B: 10 days after second application): 2.1%
Percent area of lesions (powdery mildew of barley; 15.6 ppm, 6th leaf, C: 10 days after third application): 0.8%
Percent area of lesions (powdery mildew of barley; 15.6 ppm, 9th leaf, B: 10 days after second application): 2.3%
Percent area of lesions (powdery mildew of barley; 15.6 ppm, 9th leaf, C: 10 days after third application): 10.5%
Percent area of lesions (powdery mildew of barley; 31.2 ppm, 6th leaf, A: 10 days after first application): 0.3%
Percent area of lesions (powdery mildew of barley; 31.2 ppm, 6th leaf, B: 10 days after second application): 2.0%
Percent area of lesions (powdery mildew of barley; 31.2 ppm, 6th leaf, C: 10 days after third application): 1.3%
Percent area of lesions (powdery mildew of barley; 31.2 ppm, 9th leaf, B: 10 days after second application): 0.3%
Percent area of lesions (powdery mildew of barley; 31.2 ppm, 9th leaf, C: 10 days after third application): 1.3%
Percent area of lesions (powdery mildew of barley; 62.5 ppm, 6th leaf, A: 10 days after first application): 0.1%
Percent area of lesions (powdery mildew of barley; 62.5 ppm, 6th leaf, B: 10 days after second application): 0.1%
Percent area of lesions (powdery mildew of barley; 62.5 ppm, 6th leaf, C: 10 days after third application): 0%
Percent area of lesions (powdery mildew of barley; 62.5 ppm, 9th leaf, B: 10 days after second application): 0.5%
Percent area of lesions (powdery mildew of barley; 62.5 ppm, 9th leaf, C: 10 days after third application): 0.4%
toxicity in mice (summary) (Acute toxicity in mice): mild
LD50 (Acute toxicity in mice; intravenous): > 500 mg/kg
LD50 (Acute toxicity in mice; oral): > 2000 mg/kg
Minimal inhibitory concentration (Botrytis cinerea TKF-12): 250 µg/mL (≈ 486 µM)
Diameter of inhibition zone (Botrytis cinerea TKF-12; paper disc 7 mm, 5000 μg/ml): 15 mm
Minimal inhibitory concentration [15]: 100 µg/mL (≈ 194 µM)
Diameter of inhibition zone ([15]; paper disc 7 mm, 5000 μg/ml): 18 mm
Minimal inhibitory concentration [16]: > 500 µg/mL
Percent area of lesion ([17]; 40 ppm, 9 days): 11.6%
Percent area of lesion ([17]; 40 ppm, 15 days): 20.4%
Percent area of lesion ([17]; 80 ppm, 9 days): 10.0%
Percent area of lesion ([17]; 80 ppm, 15 days): 13.2%
Percent area of lesion ([17]; 160 ppm, 9 days): 6.0%
Percent area of lesion ([17]; 160 ppm, 15 days): 8.5%
Percent of diseased leaflet (powdery mildew of rose [18]; 40 ppm): 5.6%
Percent of diseased leaflet (powdery mildew of rose [18]; 80 ppm): 3.2%
Percent of diseased leaflet (powdery mildew of rose [18]; 160 ppm): 2.6%
toxicity in rats (summary) (Acute toxicity in rats): mild
LD50 (Acute toxicity in rats; intravenous): > 500 mg/kg
LD50 (Acute toxicity in rats; oral): > 2000 mg/kg
Minimal inhibitory concentration [19]: > 500 µg/mL
Diameter of inhibition zone ([19]; paper disc 7 mm, 5000 μg/ml): 13 mm
fish toxicity (Japanese killifish): no toxic effect; also recorded: substantially harmless to fish
Percent area of lesion ([20]; inoculum: control (untreated)): 15.8%
Percent area of lesion ([20]; inoculum: lesions after application of B-98891 (80ppm)): 18.3%
Percent area of lesion ([20]; inoculum: lesions after application of Benlate WP (250 ppm)): 21.7%
Percent area of the lesion ([21]; 40 ppm): 0.9%
Percent area of the lesion ([21]; 80 ppm): 0.6%
Percent area of the lesion ([21]; 160 ppm): 0%
Minimal inhibitory concentration [22]: > 500 µg/mL
Minimal inhibitory concentration [23]: > 500 µg/mL
Diameter of inhibition zone ([23]; paper disc 7 mm, 5000 μg/ml): 12 mm
Percent area of the lesion (powdery mildew of pepper; 80 ppm, 7 days): 7.9%
Percent area of the lesion (powdery mildew of pepper; 80 ppm, 10 days): 10.3%
Percent area of the lesion (powdery mildew of pepper; 160 ppm, 7 days): 5.0%
Percent area of the lesion (powdery mildew of pepper; 160 ppm, 10 days): 4.6%
Degree of sporulation ([24]; 250 ppm): Moderate
Percent area of lesions ([24]; 250 ppm): 100%
Degree of sporulation ([24]; 500 ppm): None
Percent area of lesions ([24]; 500 ppm): 0%
Percent of diseased leaflet (powdery mildew of rose [25]; 40 ppm): 14.9%
Percent of diseased leaflet (powdery mildew of rose [25]; 80 ppm): 6.7%
Percent of diseased leaflet (powdery mildew of rose [25]; 160 ppm): 2.2%
Percent area of lesion (Erysiphe graminis; 3.12 ppm): 40%
Percent area of lesion (Erysiphe graminis; 6.25 ppm): 26%
Percent area of lesion (Erysiphe graminis; 12.5 ppm): 0%
Percent area of lesion (Erysiphe graminis; 25 ppm): 0%
Percent area of lesion (Erysiphe graminis; 50 ppm): 0%
onset control activity (Erysiphe graminis; compared with the commercially available chemical (Benomyl wettable powder)): more potent onset control activity than the commercially available chemical
activity against the causative agent of powdery mildew of barley (Erysiphe graminis) (summary) (Erysiphe graminis; in vivo): characteristically high activity
Minimal inhibitory concentration [26]: 500 µg/mL (≈ 972 µM)
Diameter of inhibition zone ([26]; paper disc 7 mm, 5000 μg/ml): 20 mm
Minimal inhibitory concentration [27]: > 500 µg/mL
